The text below walks through data of US6514956B1, “Steroids, their preparation, pharmaceutical compositions thereof and uses of the compounds” (Shanghai Zhongxi Pharmaceutical Co., Ltd., priority 1999, dated 2003).

For data set [1] the following is noted: compared with mifepristone; reported in Human Reproduction 1994; cited from earlier work.
The subject of data set [2] is Human mammary cancer cells T47D. Briefly: MTT test of killing tumor cells, T47D. The format is cell-based. The note with it: 4-6 days incubation. The procedure:
(§1) Human mammary cancer cells (MCF-7, T47D, commercially available) were prepared as 1×10^4/ml cell suspension in RPMI 1640 medium containing 10% calf serum and used to inoculate a 96-well plate at 100 μl/well. The plate was incubated for 24 hours in an incubator in 5% CO2 at 37° C. Two experimental groups each receiving compound of formula (VI) or Mifepristone (commercially available) (triplicate well/group each receiving 100 μl RPMI 1640 medium containing various concentrations of drug) and a control group (each well receiving RPMI medium containing equal volume of solvent) were incubated for 4-6 days in an incubator in 5% CO2 at 37° C. The cultural supernatant was discarded and 0.04% 100 μl MTT prepared with RPMI 1640 was added into each well. Incubation was carried out at 37° C. for 4 hours. The supernatant was discarded and 150 μl dimethyl sulfoxide was added into each well to dissolve Fomazan particles. After being shaked slightly, OD value was measured using a Model 550 Enzyme Labelling Equipment at a wavelength of 540 nm. The rate of inhibition of cells was graphed against the various concentrations of the drug to produce a dosage response curve from which 50% inhibiting concentration IC50 was derived.

The target of data set [3] is T1, progesterone receptor in rabbit endometrium (Oryctolagus cuniculus, UniProt P06186).
T1 construct: progesterone receptor in rabbit endometrium; host or cells: rabbit endometrium (tissue)
T1 sequence (P06186 1-930): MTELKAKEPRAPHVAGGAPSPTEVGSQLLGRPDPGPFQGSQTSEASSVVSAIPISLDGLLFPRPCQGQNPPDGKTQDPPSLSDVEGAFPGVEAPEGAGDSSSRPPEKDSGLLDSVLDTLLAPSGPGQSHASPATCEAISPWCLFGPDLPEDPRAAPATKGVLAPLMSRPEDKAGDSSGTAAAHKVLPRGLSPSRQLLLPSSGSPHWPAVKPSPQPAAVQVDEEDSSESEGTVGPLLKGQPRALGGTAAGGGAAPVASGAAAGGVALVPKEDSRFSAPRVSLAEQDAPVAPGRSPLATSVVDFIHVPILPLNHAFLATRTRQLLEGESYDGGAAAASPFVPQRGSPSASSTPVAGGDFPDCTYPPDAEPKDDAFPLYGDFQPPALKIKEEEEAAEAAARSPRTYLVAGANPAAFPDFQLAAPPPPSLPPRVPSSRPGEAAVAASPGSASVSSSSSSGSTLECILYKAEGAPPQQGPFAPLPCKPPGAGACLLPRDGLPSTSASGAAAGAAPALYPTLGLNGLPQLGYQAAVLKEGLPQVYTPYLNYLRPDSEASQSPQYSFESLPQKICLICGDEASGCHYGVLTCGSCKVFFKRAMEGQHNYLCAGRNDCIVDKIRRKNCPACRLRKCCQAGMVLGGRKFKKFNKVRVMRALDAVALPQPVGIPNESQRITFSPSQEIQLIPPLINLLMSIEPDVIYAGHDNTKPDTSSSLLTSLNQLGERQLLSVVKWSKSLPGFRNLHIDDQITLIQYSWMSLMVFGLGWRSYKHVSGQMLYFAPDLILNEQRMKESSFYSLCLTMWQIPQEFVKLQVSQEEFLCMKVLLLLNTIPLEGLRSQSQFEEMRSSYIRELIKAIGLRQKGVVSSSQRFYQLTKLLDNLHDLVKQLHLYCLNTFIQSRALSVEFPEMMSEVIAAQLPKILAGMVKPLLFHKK
To be noted: cited from earlier work.

The subject of data set [4] is pregnant rats, gravidity d7-9. Description: Effect in stopping early pregnancy in rats. The format is in vivo, Sprague-Dawley rats. To be noted: for early pregnancy-stopping effect: rats of gravidity d7-9. The procedure: Both sexes of Sprague-Dawley rats were placed into a cage and were allowed to copulate. […] Pregnant rats were randomly divided into 11 groups of 10. The control group was administrated with 0.5% CMC-Na solution. 6 Groups were administered with the compound of formula (VI) at doses of 2.0, 1.6, 1.28, 1.02, 0.82 and 0.66 mg/kg respecticely. 4 Groups were administered with Mifepristone at doses of 3.5, 2.45, 1.72 and 1.2 mg/kg respectively. The groups were administered endogastrically once a day (dose 2 ml/kg) for 3 consecutive days starting from gradivity d7. Animals in which ecolporrhagia was not detected and no signs of embryo implantation were found on dissection examination were considered as not pregnant and were not counted. The animals were sacrificed and laparotomized on gradivity d14 and the numbers of living embryos, dead embryos, implantation sites and yellow bodies in the uterus were counted. The number of the pregnant animals were counted and compared with that of the control group. ED50 of the two test drugs and its credibility interval was calculated with Bliss's method.

Data set [5] deals with Human mammary cancer cells MCF-7. Description: MTT test of killing tumor cells, MCF-7. Format: cell-based. The note with it: 4-6 days incubation. The procedure:
as §1

The subject of data set [6] is pregnant rats, gravidity d1-4. Briefly: Anti-implantation effect in rat. The format is in vivo, Sprague-Dawley rats. To be noted: endogastric once a day for 4 days from gravidity d1, Bliss's method. The procedure:
Both sexes of Sprague-Dawley rats were placed into a cage and were allowed to copulate. […] Pregnant rats were randomly divided into 10 groups of 10. The control group was administered with 0.5% CMC-Na solution. 5 Groups were administered with the compound of formula (VI) and 4 groups were administered with Mifepristone. The groups were administered endogastrically once a day for 4 consecutive days starting from gradivity d1. The groups of animals were laparotomized on gradivity d14 and their uterus examined. The number of pregnant animals was counted. ED50 of the two drugs was calculated with Bliss's method.

For data set [7], the system named is MNU-induced rat mammary cancer. Description: Inhibition of MNU-induced rat mammary cancer. Format: in vivo, Sprague-Dawley rats. To be noted: 30 days. The procedure:
Sprague-Dawley rats which are 5-7 weeks old and weighing 90-120 g were treated with an amount of carcinogenic chemical (MNU, commercially available) to induce rat mammary cancer and were divided into a group with cancer-induction alone, a group with mifepristone and two treatment groups with the compound of formula (VI). Each group except for the group with cancer-induction alone was endogastrically administrated with corresponding dose one time per day. After 30 days, the animals were sacrificed by decapitation. Indices such as body weight and tumor weight of each group of the animals were compared. The mean value of the groups was calculated and the rate of tumor growth inhibition derived. Rate of tumor inhibition %=(mean value of the group with cancer-induction alone−mean value of the treatment group)/mean value of the group with cancer-induction alone×100%

For data set [8] the following is noted: reported in European Journal of Cancer 1999; cited from earlier work.

On to `CN(C)c1ccc([C@H]2C[C@@]3(C)[C@@H](CC[C@@]3(O)/C=C\CO)[C@@H]3CCC4=CC(=O)CCC4=C32)cc1` [Lilopristone, 11β-[4-(N,N-dimethylamino)phenyl]-17α-[3-hydroxy-1(Z)-propenyl]-17β-hydroxy-4,9-estradiene-3-one], for which the “clinical effect in stopping early pregnancy” value in data set [1] is on record as “only equivalent to that of mifepristone”.
Turning to `CC#C[C@]1(O)CC[C@H]2[C@@H]3CCC4=CC(=O)CCC4=C3[C@@H](c3ccc(N(C)C)cc3)C[C@@]21C` [Mifepristone, 11β-[4-(N,N-dimethylamino)phenyl]-17α-(1-propinyl)-17β-hydroxy-4,9-estradiene-3-one], the 50% inhibitory concentration (IC50) in data set [2] (Homo sapiens) stood at 11 ± 9.03 µM; in data set [5] (Homo sapiens, MCF7, MCF-7 cells), 10.8 ± 8.1 µM. In addition, the “affinity with progesterone receptor compared with progesterone” value in data set [3] was “five-fold higher than that of progesterone”. In addition, in data set [4] (3.5 mg/kg), the early pregnancy-stopping effect entry is “complete early pregnancy-stopping effect”. For the same compound, the ED50 stood at 2.12 ± 0.447 mg/kg in data set [4] (Rattus norvegicus, 72 h, rats, endogastric once a day for 3 days from gravidity d7, Bliss's method, credibility interval in brackets) and 6.69 ± 1.55 mg/kg in data set [6] (Rattus norvegicus, 96 h). Besides, the “Inhibition (%) of tumor growth” value in data set [7] (40 mg/kg endogastrically once per day) was found to be 72.1%.
Regarding `CN(C)c1ccc([C@H]2C[C@]3(C)[C@@H](CC[C@]3(O)CCCO)[C@@H]3CCC4=CC(=O)CCC4=C32)cc1` [Onapristone, 11β-[4-(N,N-dimethylamino)phenyl]-17α-hydroxy-17β-(3-hydroxypropyl)-13α-4,9-estradiene-3-one], in data set [8], the “toxicity to human liver” value is recorded as “had toxicity to human liver”.
As to `CC#CC1(O)CCC2C3CCC4=CC(=O)CCC4=C3C(c3ccc(N(C)C4CCCCC4)cc3)CC21C` (stereo not drawn) [compound of formula (VI), 11β-[4-(N-methyl-N-cyclohexylamino)phenyl]-17α-(1-propinyl)-17β-hydroxy-4,9-estradiene-3-one], the 50% inhibitory concentration (IC50) is 6.4 ± 3.15 µM in data set [2] and 5.5 ± 0.72 µM in data set [5] (MCF-7 cells). The early pregnancy-stopping effect result in data set [4] (2 mg/kg/day) is recorded as “complete early pregnancy-stopping effect”. Further, in data set [4] (rats, endogastric once a day for 3 days from gravidity d7, Bliss's method, credibility interval in brackets), the “ED50, early pregnancy-stopping effect” value was 1.1439 ± 0.1590 mg/kg. The “anti-implantation ED50” value in data set [6] is 2.3409 ± 0.6191 mg/kg. The results for the “Inhibition (%) of tumor growth” value in data set [7] (10 mg/kg endogastrically once per day) and in data set [7] (20 mg/kg endogastrically once per day) were 50.4% and 89.3%, respectively.
